The text below walks through data of patent US20080292688A1, “Liposome and preparation method of the same” (Industrial Technology Research Institute, priority 2003, published 2008).

What is called solubility is the dissolved amount per volume that the medium holds. High values mean a readily soluble substance, low ones a poorly soluble substance.

Molecules are shown by their SMILES. Values after ≈ are worked out from the molar mass of the structure shown. Where only a bound is given, the exact number is not on record here.

A short description of the data set: physchem. To be noted: Solubility of RA.

Method: Therefore, TPGS is added with ethanol to increase the solubility of the hydrophobic drug in according to the present invention.

As to `CC1=C(/C=C/C(C)=C/C=C/C(C)=C/C(=O)O)C(C)(C)CCC1` [RA, All-Trans Retinoic Acid], the solubility (aqueous buffer) was < 0.1 µg/mL and the solubility (saline or isotonic) is 4 µg/mL (≈ 13.3 µM).
